This note sets out measurements from patent US6486203B1, “Treating inflammatory diseases of the head and neck with cyclooxygenase-2 inhibitors” (Cornell Research Foundation, Inc., priority 1998, dated 2002).

Common to all, as to assay type: in vivo, human
The test system of one assay is tonsillitis. Nature of the assay: Treatment of a patient with tonsillitis (Example I). The following applies: person with tonsillitis; 200 mg orally twice a day, together with amoxicillin; after taking one dose. As to the method:
A person has symptoms of a sore throat and fever. They are evaluated by a physician who notes inflamed tonsils and diagnoses tonsillitis. The patient is treated with amoxicillin 500 mg orally every eight hours for ten days. Additionally, they are given Celebrex (celecoxib) 200 mg orally twice a day for seven days.

The subject of another assay is viral pharyngitis. The assay can be described thus: Treatment of a patient with viral pharyngitis with lozenges (Example II). To be noted: person with viral pharyngitis; lozenges containing 100 mg four times a day. As to the method:
A person has symptoms of a sore throat. They are evaluated by their physician who detects an erythematous pharynx. A diagnosis of viral pharyngitis is made.

For a further assay, the system named is sinusitis. The assay can be described thus: Treatment of a patient with sinusitis (Example III). The following applies: person with sinusitis; 200 mg orally twice a day, together with amoxicillin; after taking one dose. As to the method: A person presents to their physician complaining of fever and headache. On physical examination, they have tenderness over their maxillary sinus. A diagnosis of sinusitis is made. The patient is treated with amoxicillin 500 mg orally every eight hours for ten days. They are also given Celebrex 200 mg orally twice a day for seven days.

A further assay deals with sore throat. The assay can be described thus: Treatment of sore throat with resveratrol lozenges (Example IV). The following applies: person with sore throat; lozenges of 1 gram, four per day for two days. The text has this: A person has symptoms of a sore throat.
The test system of the next assay is periodontitis. The assay can be described thus: Treatment of a patient with periodontitis with resveratrol lozenges (Example V). To be noted: tobacco-smoking person with periodontitis; lozenges of 1 gram twice a day; four months later. From the text: A […] tobacco-smoking […] is referred to a periodontist for bleeding gums and is diagnosed with periodontitis.

As for `Cc1ccc(-c2cc(C(F)(F)F)nn2-c2ccc(S(N)(=O)=O)cc2)cc1` [Celebrex, 4-[5-(4-Methylphenyl)-3-(trifluoromethyl)-1H-pyrazol-1-yl]benzenesulfonamide], the “improvement in throat pain” value with tonsillitis is listed as “marked improvement in their throat pain”. The “resolution of sore throat” value in the assay with viral pharyngitis was “complete resolution of their sore throat within two days”. Besides, the “improvement in sinus pain” value in the assay on sinusitis is on record as “marked improvement in their sinus pain”.
`Oc1ccc(/C=C/c2cc(O)cc(O)c2)cc1` [resveratrol]: the “relief of throat discomfort” value in the assay with sore throat is on record as “rapid relief of their throat discomfort”. Besides, in the assay with periodontitis, the bleeding in gums result is reported as “markedly decreased bleeding in their gums” and the “periodontal disease on examination” value is given as “improvement in periodontal disease is detected on examination”.
